The subject of the experiment is C57BL/6 mice, intracerebral ependymoblastoma, median survival T/C. Kind of experiment: NCI In Vivo Anticancer Drug Screen. Data for tumor model Ependymoblastoma (intracerebral) in C57BL/6 mice. The settings on record: endpoint: median survival time, higher = longer survival. As for the experimental part:
The antitumor activity of compounds was measured in mice bearing transplantable tumors. Survival or tumor size were measured and the results are expressed as the measurement made in the treated group (T) divided by the measurement made in the vehicle treated control group (C). The tumor model used in this assay is Ependymoblastoma (intracerebral) in C57BL/6 mice

The mark [1] stands for this setting: dose: 8.0 mg/kg/injection, schedule: Q01DX005 (ip), vehicle: saline with Tween-80.
Setting [2] is: dose: 16.0 mg/kg/injection, schedule: Q01DX005 (ip), vehicle: saline with Tween-80.
Where [3] appears, read: dose: 32.0 mg/kg/injection, schedule: Q01DX005 (ip), vehicle: saline with Tween-80.
The mark [4] stands for this setting: dose: 64.0 mg/kg/injection, schedule: Q01DX005 (ip), vehicle: saline with Tween-80.
The mark [5] stands for this setting: dose: 128.0 mg/kg/injection, schedule: Q01DX001 (ip), vehicle: Klucel (hydroxypropylcellulose) (HPC).
The mark [6] stands for this setting: dose: 8.0 mg/kg/injection, schedule: Q01DX005 (ip), vehicle: Klucel (hydroxypropylcellulose) (HPC).
[7] abbreviates: dose: 8.0 mg/kg/injection, schedule: Q01DX005 (ip), vehicle: saline.
The mark [8] stands for this setting: dose: 16.0 mg/kg/injection, schedule: Q01DX005 (ip), vehicle: Klucel (hydroxypropylcellulose) (HPC).
[9] abbreviates: dose: 32.0 mg/kg/injection, schedule: Q01DX005 (ip), vehicle: Klucel (hydroxypropylcellulose) (HPC).
Setting [10] is: dose: 0.05 mg/kg/injection, schedule: Q01DX005 (ip), vehicle: saline.
[11] abbreviates: dose: 0.1 mg/kg/injection, schedule: Q01DX005 (ip), vehicle: saline.
Setting [12] is: dose: 0.2 mg/kg/injection, schedule: Q01DX005 (ip), vehicle: saline.
The mark [13] stands for this setting: dose: 64.0 mg/kg/injection, schedule: Q01DX005 (ip), vehicle: Klucel (hydroxypropylcellulose) (HPC).

The source of these data is PubChem BioAssay AID222 (DTP/NCI, 2004).

Where “and” joins values, the source holds several entries; their conditions need not be identical. Identical values can stand only once. Toxic doses and inconclusive results are not listed.

Consider `CCOC(=O)C(CC(C)C)NC(=O)C(Cc1ccc(N(CCCl)CCCl)cc1)NC(C)=O` (configuration not stated), for which the T/C (dose: 1.0 mg/kg/injection, schedule: Q01DX005 (ip), vehicle: Klucel (hydroxypropylcellulose) (HPC)) was 103 % of control; the T/C (dose: 2.0 mg/kg/injection, schedule: Q01DX005 (ip), vehicle: Klucel (hydroxypropylcellulose) (HPC)) was 94 % of control and 101 % of control; the T/C (dose: 4.0 mg/kg/injection, schedule: Q01DX005 (ip), vehicle: saline with Tween-80) was 96 % of control and 109 % of control; the T/C under setting [1] is 110 % of control and 119 % of control; the T/C under setting [2] was 107 % of control; the T/C (dose: 16.0 mg/kg/injection, schedule: Q#A X002 (ip), vehicle: Klucel (hydroxypropylcellulose) (HPC)) is 110 % of control. The T/C runs as follows: (dose: 32.0 mg/kg/injection, schedule: Q01DX001 (ip), vehicle: Klucel (hydroxypropylcellulose) (HPC)) 100 % of control; under setting [3], 97 % of control and 116 % of control; (dose: 32.0 mg/kg/injection, schedule: Q#A X002 (ip), vehicle: Klucel (hydroxypropylcellulose) (HPC)) 96 % of control; (dose: 64.0 mg/kg/injection, schedule: Q01DX001 (ip), vehicle: Klucel (hydroxypropylcellulose) (HPC)) 97 % of control and 103 % of control; (dose: 64.0 mg/kg/injection, schedule: Q01DX001 (oral), vehicle: Klucel (hydroxypropylcellulose) (HPC)) 99 % of control and 113 % of control; under setting [4], 91 % of control. Besides, the T/C was 94 % of control (dose: 64.0 mg/kg/injection, schedule: Q#A X002 (ip), vehicle: Klucel (hydroxypropylcellulose) (HPC)); 94 % of control and 115 % of control under setting [5]; 99 % of control and 110 % of control (dose: 128.0 mg/kg/injection, schedule: Q01DX001 (oral), vehicle: Klucel (hydroxypropylcellulose) (HPC)); 99 % of control (dose: 128.0 mg/kg/injection, schedule: Q#A X002 (ip), vehicle: Klucel (hydroxypropylcellulose) (HPC)); 91 % of control and 98 % of control (dose: 256.0 mg/kg/injection, schedule: Q01DX001 (ip), vehicle: Klucel (hydroxypropylcellulose) (HPC)); 101 % of control and 110 % of control (dose: 256.0 mg/kg/injection, schedule: Q01DX001 (oral), vehicle: Klucel (hydroxypropylcellulose) (HPC)). Besides, the T/C by setting is: (dose: 512.0 mg/kg/injection, schedule: Q01DX001 (ip), vehicle: Klucel (hydroxypropylcellulose) (HPC)) 86 % of control; (dose: 512.0 mg/kg/injection, schedule: Q01DX001 (oral), vehicle: Klucel (hydroxypropylcellulose) (HPC)) 104 % of control and 114 % of control; (dose: 1024.0 mg/kg/injection, schedule: Q01DX001 (oral), vehicle: Klucel (hydroxypropylcellulose) (HPC)) 100 % of control and 109 % of control.
Consider `O=C(NP(=O)(N1CC1)N1CC1)c1cc(I)ccc1I`, for which the T/C by setting is: under setting [6], 106 % of control; under setting [1], 91 % of control and 104 % of control; under setting [7], 102 % of control and 107 % of control; under setting [8], 113 % of control; under setting [2], 101 % of control and 106 % of control; (dose: 16.0 mg/kg/injection, schedule: Q01DX005 (ip), vehicle: saline) 102 % of control and 119 % of control. Moreover, the T/C by setting is: under setting [9], 120 % of control; under setting [3], 101 % of control; (dose: 32.0 mg/kg/injection, schedule: Q01DX005 (ip), vehicle: saline) 113 % of control; (dose: 64.0 mg/kg/injection, schedule: Q01DX005 (ip), vehicle: saline) 119 % of control and 124 % of control.
On to `CC[C@]1(O)C[C@H]2CN(CCc3c([nH]c4ccccc34)[C@@](C(=O)OC)(c3cc4c(cc3OC)N(C=O)[C@H]3[C@@](O)(C(=O)OC)[C@H](OC(C)=O)[C@]5(CC)C=CCN6CC[C@]43[C@@H]65)C2)C1`, for which the T/C was 108 % of control under setting [10]; 103 % of control under setting [11]; 105 % of control under setting [12]; 124 % of control (dose: 0.4 mg/kg/injection, schedule: Q01DX005 (ip), vehicle: saline).
In the case of `NC(CSC(c1ccccc1)(c1ccccc1)c1ccccc1)C(=O)O` (configuration not stated), the T/C is 99 % of control under setting [9] and 109 % of control under setting [13].
Turning to `COC1C(CO)OC(n2cnc3c(=S)nc(N)[nH]c32)C1O` (configuration not stated), where the note is “dose: 100.0 mg/kg/injection, schedule: Q01DX005 (ip), vehicle: Klucel (hydroxypropylcellulose) (HPC)”, the T/C was 91 % of control.
On to `[N-]=[N+]=CC(=O)CCC(N)C(=O)O` (configuration not stated), for which the T/C by setting is: under setting [10], 101 % of control; under setting [11], 115 % of control; under setting [12], 106 % of control; (dose: 0.8 mg/kg/injection, schedule: Q01DX005 (ip), vehicle: saline) 121 % of control.
For the molecule `Nc1nncs1`, the T/C by setting is: (dose: 7.5 mg/kg/injection, schedule: Q01DX009 (ip), vehicle: Klucel (hydroxypropylcellulose) (HPC)) 112 % of control; (dose: 15.0 mg/kg/injection, schedule: Q01DX009 (ip), vehicle: Klucel (hydroxypropylcellulose) (HPC)) 117 % of control; under setting [4], 102 % of control.
Turning to `C[CH2][Ge]1([CH2]C)[CH2]CC2(CCN(CCCN(C)C)C2)C[CH2]1`, the T/C by setting is: (dose: 4.0 mg/kg/injection, schedule: Q01DX005 (ip), vehicle: saline) 104 % of control; under setting [7], 98 % of control and 101 % of control and 108 % of control.
Consider `CCCN(C)C(=O)N(CCCl)N=O`, for which the T/C runs as follows: (dose: 39.0 mg/kg/injection, schedule: Q01DX001 (ip), vehicle: other) 182 % of control; (dose: 62.5 mg/kg/injection, schedule: Q01DX001 (ip), vehicle: other) 309 % of control; (dose: 78.0 mg/kg/injection, schedule: Q01DX001 (ip), vehicle: other) 227 % of control; (dose: 125.0 mg/kg/injection, schedule: Q01DX001 (ip), vehicle: other) 309 % of control; (dose: 156.0 mg/kg/injection, schedule: Q01DX001 (ip), vehicle: other) 308 % of control.
Take `CCC1=C[C@H]2CN(CCc3c([nH]c4ccccc34)[C@@](C(=O)OC)(c3cc4c(cc3OC)N(C)[C@H]3[C@@](O)(C(=O)NC)[C@H](OC(C)=O)[C@]5(CC)C=CCN6CC[C@]43[C@@H]65)C2)C1`: the T/C was 105 % of control (dose: 0.05 mg/kg/injection, schedule: Q01DX005 (ip), vehicle: Klucel (hydroxypropylcellulose) (HPC)); 98 % of control (dose: 0.1 mg/kg/injection, schedule: Q01DX005 (ip), vehicle: Klucel (hydroxypropylcellulose) (HPC)); 107 % of control (dose: 0.2 mg/kg/injection, schedule: Q01DX005 (ip), vehicle: Klucel (hydroxypropylcellulose) (HPC)); 103 % of control (dose: 0.4 mg/kg/injection, schedule: Q01DX005 (ip), vehicle: Klucel (hydroxypropylcellulose) (HPC)); 93 % of control (dose: 0.8 mg/kg/injection, schedule: Q01DX005 (ip), vehicle: Klucel (hydroxypropylcellulose) (HPC)).
`C(COCCOCC1CO1)OCCOCC1CO1` (configuration not stated): the T/C by setting is: (dose: 50.0 mg/kg/injection, schedule: Q01DX005 (ip), vehicle: saline with Tween-80) 93 % of control; (dose: 100.0 mg/kg/injection, schedule: Q01DX005 (ip), vehicle: saline with Tween-80) 96 % of control; (dose: 200.0 mg/kg/injection, schedule: Q01DX005 (ip), vehicle: saline with Tween-80) 96 % of control; (dose: 400.0 mg/kg/injection, schedule: Q01DX005 (ip), vehicle: saline with Tween-80) 113 % of control.
On to `Cc1c2ccncc2c(C)c2c1[nH]c1ccccc12`, for which the T/C under setting [5] was 103 % of control.
In the case of `CN(C)CC(=O)c1ccc(O)c(O)c1`, the T/C was 101 % of control (dose: 100.0 mg/kg/injection, schedule: Q01DX005 (ip), vehicle: saline); 99 % of control (dose: 200.0 mg/kg/injection, schedule: Q01DX005 (ip), vehicle: saline); 108 % of control (dose: 400.0 mg/kg/injection, schedule: Q01DX005 (ip), vehicle: saline).
Consider `CCN(CC)CCOc1ccc(/C(=C(\Cl)c2ccccc2)c2ccccc2)cc1`, for which the T/C is 97 % of control and 99 % of control under setting [6]; 97 % of control and 108 % of control under setting [8]; 95 % of control and 112 % of control under setting [9]; 101 % of control (dose: 32.0 mg/kg/injection, schedule: Q01DX005 (oral), vehicle: Klucel (hydroxypropylcellulose) (HPC)); 88 % of control and 95 % of control under setting [13]; 104 % of control (dose: 64.0 mg/kg/injection, schedule: Q01DX005 (oral), vehicle: Klucel (hydroxypropylcellulose) (HPC)). The T/C (dose: 128.0 mg/kg/injection, schedule: Q01DX005 (oral), vehicle: Klucel (hydroxypropylcellulose) (HPC)) was 96 % of control.
